Experimental data reported in the supplement of paper PMC10331698.
± gives the standard deviation of the averaged measurements.

What was measured:
Experiment in all cases: level (log10 ratio to DMSO vehicle control); higher = higher biomarker level / cell amount than vehicle control
Conditions in all cases: in DMSO
[1] = compound: FC(F)(F)C(F)(F)C(F)(F)C(F)(F)C(F)(F)C(F)(F)I [Perfluoro-1-iodohexane]
Protocol: (§1)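 BioMAP Diversity Plus panel of 12 human primary cell co-culture systems (3C, 4H, LPS, SAg, BT, BF4T, BE3C, CASM3C, HDF3CGF, KF3CT, MyoF, Mphg). Compounds were added 1 h before stimulation and left for 24 h (MyoF 48 h; BT 72 h for soluble read-outs or 6 d for IgG). Biomarkers were read by ELISA, cytotoxicity by SRB, PBMC viability and proliferation by Alamar Blue. Each well value was divided by the mean of 8 DMSO control wells on the same plate and log10 transformed; duplicate blinded samples were tested at 4 concentrations.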

[2] = compound: FC(F)(F)C(F)(F)C(F)(F)C(F)(F)C(F)(F)CCI [1-Iodo-1H,1H,2H,2H-perfluoroheptane]
Protocol: as §1

[3] = compound: O=C(O)C(F)(F)C(F)(F)C(F)(F)F [Perfluorobutanoic acid]
Protocol: as §1

[4] = compound: O=C(O)C(F)(F)C(F)(F)F [Perfluoropropanoic acid]
Protocol: as §1

[5] = compound: O=C(O)C(F)(F)OC(F)(F)C(F)(F)OC(F)(F)F [Perfluoro-3,6-dioxaheptanoic acid]
Protocol: as §1

[6] = compound: OCC(F)(F)OC(F)(F)C(F)(F)OC(F)(F)CO [1H,1H,8H,8H-Perfluoro-3,6-dioxaoctane-1,8-diol]
Protocol: as §1

[7] = compound: OCCC(F)(F)C(F)(F)C(F)(F)C(F)(F)C(F)(F)C(F)(F)F [6:2 Fluorotelomer alcohol]
Protocol: as §1

Test System	level (log10) ([1]; 6700 nM)	level (log10) ([1]; 20000 nM)	level (log10) ([1]; 60000 nM)	level (log10) ([2]; 6700 nM)	level (log10) ([2]; 20000 nM)	level (log10) ([2]; 60000 nM)	level (log10) ([3]; 6700 nM)	level (log10) ([3]; 20000 nM)	level (log10) ([3]; 60000 nM)	level (log10) ([4]; 6700 nM)	level (log10) ([4]; 20000 nM)	level (log10) ([4]; 60000 nM)	level (log10) ([5]; 6700 nM)	level (log10) ([5]; 20000 nM)	level (log10) ([5]; 60000 nM)	level (log10) ([6]; 6700 nM)	level (log10) ([6]; 20000 nM)	level (log10) ([6]; 60000 nM)	level (log10) ([7]; 6700 nM)	level (log10) ([7]; 20000 nM)
HDF3CGF:TIMP-1	-0.014 ± 0.021	-0.017 ± 0.025	-0.0385 ± 0.016	-0.001 ± 0.0042	0.0055 ± 0.005	-0.024 ± 0.0085	-0.0165 ± 0.00071	-0.0085 ± 0.033	0.0085 ± 0.013	-0.0195 ± 0.016	-0.0045 ± 0.0064	0.038 ± 0.025	-0.0265 ± 0.029	-0.012 ± 0.052	-0.0655 ± 0.074	-0.007 ± 0.025	-0.0015 ± 0.016	0.0065 ± 0.023	0.0005 ± 0.018	0.0095 ± 0.028
HDF3CGF:TIMP-2	0.017 ± 0.038	0.0295 ± 0.018	0.031 ± 0.045	0.0155 ± 0.023	0.004 ± 0.033	-0.019 ± 0.035	-0.0015 ± 0.0035	-0.0055 ± 0.015	-0.0115 ± 0.036	-0.0495 ± 0.028	-0.0155 ± 0.05	-0.037 ± 0.073	-0.018 ± 0.062	0.003 ± 0.047	0.008 ± 0.045	-0.002 ± 0.016	0.002 ± 0.0071	-0.011 ± 0.021	-0.007 ± 0.025	0.004 ± 0.021
KF3CT:CCL2/MCP-1	0.0225 ± 0.032	-0.015 ± 0.0014	-0.0185 ± 0.047	0.0005 ± 0.015	-0.034 ± 0.028	-0.0465 ± 0.064	-0.028 ± 0.0099	-0.0325 ± 0.0035	0.0205 ± 0.023	-0.0395 ± 0.0078	-0.018 ± 0.028	0.0055 ± 0.06	-0.0175 ± 0.016	-0.0345 ± 0.0078	0.0395 ± 0.028	-0.0075 ± 0.026	-0.022 ± 0.011	0.0235 ± 0.061	-0.015 ± 0.038	-0.016 ± 0.041
KF3CT:CD54/ICAM-1	0.001 ± 0.0085	0.008 ± 0.021	0 ± 0.011	0.0015 ± 0.019	-0.0045 ± 0.00071	-0.0165 ± 0.0021	-0.005 ± 0.0028	0.008 ± 0.0071	0.016 ± 0.016	-0.0135 ± 0.0092	-0.0015 ± 0.0021	0.004 ± 0.0028	-0.0055 ± 0.0035	-0.0115 ± 0.00071	-0.02 ± 0.011	-0.004 ± 0.0014	0.008 ± 0.03	0.0135 ± 0.037	0.011 ± 0.0057	0.0155 ± 0.0021
KF3CT:CXCL8/IL-8	-0.0125 ± 0.016	0.003 ± 0.0014	0 ± 0.011	0.007 ± 0.035	0.028 ± 0.02	0.06 ± 0.011	0.012 ± 0.013	-0.009 ± 0.0085	0.0045 ± 0.013	-0.0125 ± 0.011	0.0095 ± 0.0092	0.0475 ± 0.03	-0.0075 ± 0.015	0.005 ± 0.011	0.0515 ± 0.033	0.011 ± 0.021	0.0125 ± 0.028	0.016 ± 0.018	0 ± 0.0057	-0.0165 ± 0.005
KF3CT:CXCL9/MIG	-0.002	-0.0125 ± 0.00071	0.0025 ± 0.012	0.003 ± 0.0014	0.003	0.006 ± 0.0014	0 ± 0.0099	0.0015 ± 0.0021	0.0055 ± 0.022	-0.007 ± 0.0071	-0.005 ± 0.017	-0.0095 ± 0.021	-0.022 ± 0.0071	0.0065 ± 0.013	-0.0035 ± 0.019	0.001 ± 0.011	0.006 ± 0.0085	0.0015 ± 0.0092	0.0045 ± 0.0035	0.009
KF3CT:CXCL10/IP-10	0.005 ± 0.0014	0.001 ± 0.0028	0.0065 ± 0.0092	0.0035 ± 0.00071	0.001 ± 0.013	-0.0185 ± 0.00071	0.008 ± 0.0042	-0.005 ± 0.0014	-0.002 ± 0.0028	-0.022 ± 0.033	0.004 ± 0.014	0.019 ± 0.0085	-0.0085 ± 0.00071	-0.0055 ± 0.005	0.003 ± 0.013	0.0025 ± 0.005	-0.001 ± 0.0028	0.004 ± 0.0028	0.0105 ± 0.0092	0.006 ± 0.014
KF3CT:IL-1alpha	0.008 ± 0.017	0.005 ± 0.017	-0.014 ± 0.017	0.01 ± 0.016	0.009 ± 0.0057	-0.0295 ± 0.016	-0.0085 ± 0.012	0.006 ± 0.062	0.019 ± 0.058	-0.013 ± 0.05	-0.0035 ± 0.052	-0.04 ± 0.038	-0.011 ± 0.025	0.032 ± 0.03	-0.1 ± 0.067	-0.029 ± 0.045	-0.013 ± 0.014	0.013 ± 0.023	0.003 ± 0.041	-0.0085 ± 0.011
KF3CT:MMP-9	-0.0225 ± 0.0064	-0.0225 ± 0.0092	-0.044 ± 0.0099	-0.017 ± 0.011	-0.0265 ± 0.025	-0.029 ± 0.021	-0.01 ± 0.021	-0.0185 ± 0.019	0.0005 ± 0.013	-0.0405 ± 0.012	-0.053 ± 0.035	-0.0105 ± 0.032	-0.0195 ± 0.033	-0.0205 ± 0.05	-0.028 ± 0.034	-0.0005 ± 0.00071	0.0085 ± 0.011	0.0265 ± 0.0078	-0.007 ± 0.035	-0.0045 ± 0.015
KF3CT:PAI-I	0.001 ± 0.0014	-0.0005 ± 0.005	0.0055 ± 0.005	-0.007 ± 0.02	-0.014 ± 0.0071	-0.0245 ± 0.028	-0.0055 ± 0.0078	-0.019 ± 0.0014	0	0.0095 ± 0.07	0.021 ± 0.0071	-0.006 ± 0.1	0.0035 ± 0.096	0.009 ± 0.0085	0.008 ± 0.072	-0.015 ± 0.0028	-0.0095 ± 0.0078	-0.002 ± 0.0099	-0.0155 ± 0.0035	-0.0035 ± 0.011
KF3CT:SRB	-0.0075 ± 0.00071	-0.0065 ± 0.00071	0 ± 0.011	0.002 ± 0.0071	-0.0045 ± 0.00071	-0.0065 ± 0.0078	-0.008 ± 0.0042	-0.0005 ± 0.00071	0.006 ± 0.018	0.005 ± 0.0071	-0.005 ± 0.0028	-0.003	0.0035 ± 0.0021	-0.0015 ± 0.0021	-0.0045 ± 0.005	-0.002 ± 0.0057	-0.0025 ± 0.0021	0.0075 ± 0.023	-0.0085 ± 0.0078	-0.0225 ± 0.005
KF3CT:TIMP-2	0.0015 ± 0.013	0.0135 ± 0.019	0.0035 ± 0.011	-0.012 ± 0.035	-0.03 ± 0.028	-0.0245 ± 0.03	-0.005 ± 0.014	-0.009 ± 0.0071	-0.002 ± 0.0014	0.014 ± 0.062	-0.0115 ± 0.0092	0.0275 ± 0.012	0.024 ± 0.069	-0.0365 ± 0.13	-0.01 ± 0.12	0.0025 ± 0.005	0.005 ± 0.0014	0.0065 ± 0.0092	0.0005 ± 0.016	0.0015 ± 0.015
KF3CT:uPA	0.013 ± 0.0042	0.006 ± 0.023	0.007 ± 0.017	-0.001 ± 0.034	0.0145 ± 0.022	0.0125 ± 0.00071	-0.017 ± 0.017	-0.018 ± 0.0099	0.005 ± 0.02	-0.0085 ± 0.022	0.032 ± 0.027	0.0045 ± 0.021	-0.0175 ± 0.019	0.023 ± 0.033	0.017 ± 0.05	-0.0045 ± 0.0092	-0.011 ± 0.0085	0.0005 ± 0.021	-0.015 ± 0.023	-0.0055 ± 0.015
MyoF:CD106/VCAM-1	-0.031 ± 0.016	-0.102 ± 0.064	-0.337 ± 0.03	0.001 ± 0.0042	-0.026 ± 0.0028	-0.0205 ± 0.0064	-0.013 ± 0.0028	-0.007 ± 0.0014	-0.0075 ± 0.015	-0.02 ± 0.013	-0.027 ± 0.016	0.0035 ± 0.016	0.001 ± 0.048	-0.0175 ± 0.028	-0.021 ± 0.051	0.0075 ± 0.019	-0.009 ± 0.0071	-0.0045 ± 0.015	0.016 ± 0.0071	0.0045 ± 0.019
